These results are taken from publication PMC5361079 (Scientific Reports, 2017).

Where two headings read alike, the source gives them in different places.

The test system of data set [1] is anesthetized, male Dunkin-Hartley guinea pigs. To be noted: cumulative IV infusion dose 2.5 mg/kg amiodarone alone; cited from earlier work.
For the next data set, the system named is hiPSC-CM syncytia. The data set can be described thus: Spontaneous FP rate and IMP amplitude/beating rate in hiPSC-CM syncytia (RTCA CardioECR / RTCA Cardio). The class given is cell-based, human. The method, then:
hiPSC-CMs (iCells®) from Cellular Dynamics International (CDI, Madison, WI, USA) were seeded onto 48-well CardioECR or 96-well Cardio E-Plates® (ACEA Biosciences Inc., San Diego, CA, USA) coated with 10 μg/mL fibronectin (Sigma Aldrich, Catalog# F1141) at 30,000 cells/well, following manufacturer’s recommendations. Cells were maintained in culture (37 °C, 5% CO2) for a period of 14 days with iCell Maintenance® media (CDI, Madison, WI, USA) exchanged every 2–3 days. Compound addition was only performed on or after Day 14 following cell seeding.
Compound stock solutions were prepared in 100% DMSO or H2O. On the day of compound addition, the media was exchanged with fresh iCell Maintenance® media and allowed to equilibrate for at least 3 h in the incubator. The plates were read on an xCELLigence® RTCA CardioECR or RTCA Cardio (ACEA Biosciences Inc., San Diego, CA, USA). Control pre-reads to establish a baseline were recorded for at least 45 minutes (4 reads at 15-min intervals) prior to compound addition. The compound stock solutions were diluted into iCell Maintenance® media and quickly added to the plate. The plate was continuously monitored for at least 18 h following compound addition. IMP data were sampled at 12 ms (83 Hz), while FP rate data were collected at 0.1 ms (10 KHz). Attachment, growth and viability of syncytia were monitored by means of the baseline IMP signal, as previously described. IMP and FP signals were only interpreted if the baseline IMP was maintained throughout the measurement period (usually ≤18 hrs) at ≥70% of the value before test compound application (pre-read value).

Data set [2] is described as follows: Cardiac tissue concentrations in anesthetized guinea pigs. The class given is in vivo, guinea pig. To be noted: end of IV infusions, prodrug alone or + amiodarone.
For data set [3] the following is noted: anesthetized guinea pigs, cited from earlier work.
A further data set concerns hiPSC-CMs. In words: Intracellular prodrug, cleavage intermediate metabolite and NTP metabolite concentrations in hiPSC-CMs. It counts as in vitro ADME, human. The method, then:
Approximately 18 h before dosing, iCell hiPSC-CMs were switched to iCell cardiomyocyte maintenance media free of Penicillin/Streptomycin. […] […] After the corresponding treatment, cells were washed 2x with 200 μL of ice-cold magnesium- and calcium-free PBS buffer. Cells were then lysed in 100 μL of ice-cold lysis solution (70/30 methanol/water containing 20 mM EDTA and 20 mM EGTA, pH 8) by pipetting up and down 5 times. Plates were sealed and transferred on dry ice for determination of prodrug, cleavage intermediate metabolite, and NTP metabolite concentrations. Intracellular prodrug concentrations were measured using a reversed phase HPLC- high resolution mass spectrometry method. A dimethylhexylamine based ion-pairing HPLC-MS/MS method was used to measure intracellular cleavage intermediate metabolite and NTP metabolite concentrations. Intracellular concentrations (pmol/million cells) of prodrug, cleavage intermediate metabolite, and NTP metabolite were quantitated against calibration standards of the same analytes prepared from control iCell hiPSC-CM lysates.
For prodrug analyses, full scan high resolution mass spectrometry data was collected using an Exactive™ Orbitrap mass spectrometer with an electrospray source operated in the positive ion mode. Prodrug chromatograms were extracted from full scan high resolution mass spectrometry data for the masses indicated in Supplementary Table 5. Absence of endogenous interference(s) was verified by extracting the same ion from full scan high resolution mass spectrometry chromatograms of unspiked control cell lysates. For the cleavage intermediate metabolite and NTP metabolite an electrospray MS/MS method run on a SCIEX API 4000 mass spectrometer with turboV ionspray source was used in negative ion mode monitoring the transitions indicated in Supplementary Table 5. Absence of endogenous interference(s) was verified by monitoring of the same MRM transitions for unspiked control cell lysates. Measured intracellular prodrug, cleavage intermediate metabolite, and NTP metabolite concentrations (in pmol/million cells units) were tabulated (Table 2).

The mark [4] stands for this setting: 10 μM prodrug in the presence of 0.3 μM amiodarone.
Setting [5] is: prodrug co-administered with 0.3 μM amiodarone, steady state (4 h), spontaneously beating hiPSC-CM syncytia.
Setting [6] is: 30 Min, SOF-3 mM, SOF + A (0.3 µM amiodarone) + Ebel, LOQ=17.

`CCCCc1oc2ccccc2c1C(=O)c1cc(I)c(OCCN(CC)CC)c(I)c1` [amiodarone]: the “HR, % change from baseline” value in data set [1] was −7%.

In the case of `CC(C)OC(=O)[C@H](C)NP(=O)(OC[C@H]1O[C@@H](n2ccc(=O)[nH]c2=O)[C@](C)(F)[C@@H]1O)Oc1ccccc1` (stereo partly drawn) [sofosbuvir, isopropyl (2S)-2-[[[(2R,3R,4R,5R)-5-(2,4-dioxopyrimidin-1-yl)-4-fluoro-3-hydroxy-4-methyl-tetrahydrofuran-2-yl]methoxy-phenoxy-phosphoryl]amino]propanoate, reference compound], the “Change in IMP amplitude (RTCA Cardio)” value with hiPSC-CM syncytia (setting [4]) was −97% ± 2%. Besides, the “Change in beating rate (IMP-measured, RTCA Cardio)” value with hiPSC-CM syncytia (setting [4]) is “+146% ± 11%”. The IMP amplitude entry in the data set with hiPSC-CM syncytia (11 μM sofosbuvir co-applied with 0.3 μM amiodarone) is recorded as “below the limit of detection”. Moreover, in the data set on hiPSC-CM syncytia (setting [5]), the “Effect on FP rate” value is “Concentration-dependent, steady-state effects”. In addition, the “Effect on IMP amplitude” value with hiPSC-CM syncytia (setting [5]) is recorded as “Concentration-dependent, steady-state effects”. Moreover, the “Cleavage intermediate metabolite and NTP metabolite in cardiac tissue” value in data set [2] was “present”. Besides, the figures for the Cardiac sofosbuvir concentration in data set [3] (cumulative IV sofosbuvir + amiodarone) and in data set [3] (cumulative IV sofosbuvir alone) were ~ 6 nmol/g tissue and ~ 8 nmol/g tissue, respectively. The “Intracellular Concentration, Sofosbuvir (Prodrug)” value turned out to be 66.9 ± 6.8 pmol/million cells in the data set with hiPSC-CMs (4 Hours, SOF-10 μM, SOF); 19.6 ± 5.8 pmol/million cells with hiPSC-CMs (4 Hours, SOF-3 mM, SOF); 46.9 ± 8.9 pmol/million cells in the data set with hiPSC-CMs (4 Hours, SOF-3 mM, SOF + A (0.3 µM amiodarone) + Ebel); 53.4 ± 9.5 pmol/million cells in the data set on hiPSC-CMs (30 Min, SOF-10 μM, SOF + A (0.3 µM amiodarone) + Ebel); 19.5 ± 0.9 pmol/million cells in the data set on hiPSC-CMs (30 Min, SOF-3 mM, SOF). Also, the “Intracellular Concentration, NTP Metabolite” value was “B LOQ” in the data set with hiPSC-CMs (4 Hours, SOF-3 mM, SOF + A (0.3 µM amiodarone) + Ebel, LOQ=17); “B LOQ” in the data set on hiPSC-CMs (4 Hours, SOF-3 mM, SOF, LOQ=17); “B LOQ” with hiPSC-CMs (4 Hours, SOF-10 mM, SOF + A (0.3 µM amiodarone) + Ebel, LOQ=17); “B LOQ” with hiPSC-CMs (setting [6]); “B LOQ” in the data set with hiPSC-CMs (30 Min, SOF-3 mM, SOF, LOQ=17); “B LOQ” in the data set on hiPSC-CMs (30 Min, SOF-10 mM, SOF + A (0.3 µM amiodarone) + Ebel, LOQ=17). The “Intracellular Concentration, NTP Metabolite” value in the data set with hiPSC-CMs (30 Min, SOF-10 mM, SOF, LOQ=17) is reported as “B LOQ”; in the data set with hiPSC-CMs (SOF-10 mM, 4 Hours, 2a (SAR164653) 50 mM, LOQ=17), “B LOQ”; in the data set on hiPSC-CMs (SOF-10 mM, 4 Hours, 2a (SAR164653) 100 mM, LOQ=17), “B LOQ”; in the data set with hiPSC-CMs (SOF-10 mM, 30 Min, 2a (SAR164653) 0 mM, LOQ=17), “B LOQ”; in the data set on hiPSC-CMs (SOF-10 mM, 30 Min, 2a (SAR164653) 1 mM, LOQ=17), “B LOQ”; in the data set with hiPSC-CMs (SOF-10 mM, 30 Min, 2a (SAR164653) 10 mM, LOQ=17) it was “B LOQ”. Further, the “Intracellular Concentration, NTP Metabolite” value with hiPSC-CMs (SOF-10 mM, 30 Min, 2a (SAR164653) 50 mM, LOQ=17) is “B LOQ”; in the data set on hiPSC-CMs (SOF-10 mM, 30 Min, 2a (SAR164653) 100 mM, LOQ=17), “B LOQ”; with hiPSC-CMs (hiPSC-CMs, 10 μM prodrug + 0.3 μM amiodarone, 30 Min, BLOQ = below 17 pmol/million cells) it was “BLOQ”; with hiPSC-CMs (hiPSC-CMs, 10 μM prodrug alone, 30 Min, BLOQ = below 17 pmol/million cells) it was “BLOQ*”. Moreover, the “Intracellular Concentration, Cleavage Intermediate Metabolite” value in the data set on hiPSC-CMs (30 Min, SOF-10 μM, SOF + A (0.3 µM amiodarone) + Ebel, LOQ=17) is “B LOQ”; with hiPSC-CMs (setting [6]) it was “B LOQ”. Also, the “Intracellular Concentration, Prodrug” value with hiPSC-CMs (hiPSC-CMs, 10 μM prodrug + 0.3 μM amiodarone, 4 Hours) was found to be 58.4 ± 6.0 pmol/million cells; in the data set with hiPSC-CMs (hiPSC-CMs, 10 μM prodrug + 0.3 μM amiodarone, 30 Min), 45.6 ± 2.0 pmol/million cells; with hiPSC-CMs (hiPSC-CMs, 10 μM prodrug alone, 4 Hours), 50.1 ± 2.1 pmol/million cells; with hiPSC-CMs (hiPSC-CMs, 10 μM prodrug alone, 30 Min) it was 46.7 ± 3.7 pmol/million cells.
